We go through five compounds from patent publication US8450293B2, “Synthesis and characterization of C8 analogs of c-di-GMP” (Rutgers, The State University of New Jersey, priority 2010, dated 2013).

For data set [1] the following is noted: similar concentrations; Zhang et al. 2004; cited from earlier work.
Data set [2] is described as follows: NMR / 2D DOSY study of metal-dependent complex formation. The format is physicochemical. The note with it: NMR concentrations (26-31 mM). From the text:
Three larger and three smaller resonances clustered near 6 ppm, from the H1′ were observed. Diffusion coefficients (D, m^2/s×10^−1), obtained from a separate 2D DOSY experiment on the same sample, are indicated in parentheses. […] (Zhang et al., J. Am. Chem. Soc. 2006, 128, 7015-7024; Zhao et al., Nucleosides Nucleotides Nucl. Acids 2009, 28, 352-378) Here, all three larger resonances have D=1.5, indicative of octamolecular complexes. The two farthest downfield of the three smaller resonances have D=1.7, indicative of tetramolecular complexes (the octamolecular having been already identified), and the remaining farthest upfield smaller resonance has D=3.5, indicative of a bimolecular structure. At 5° C., all three smaller resonances nearly disappear, leaving primarily the three larger ones. The octamolecular complexes are expected to be preferentially stabilized at lower temperatures. At 55° C., the three larger resonances all decrease, and only the farthest upfield of the smaller resonances increases, confirming it is the bimolecular structure. The higher order complexes are disrupted at higher temperatures, leaving the bimolecular structure dominant.
All NMR spectra were acquired on a Varian VNMRS 500 MHz spectrometer. Samples were 31 mM of 2, 27 mM of 3, 26 mM of […] of 5, and 26 mM of 6, each in 0.30 mL H2O containing 10% D2O. The pH of all samples was adjusted to 6.8, using either HCl or KOH/NaOH/LiOH, as appropriate. Each sample was heated to 75° C. for 10 minutes, then allowed to cool to room temperature before being transferred to the NMR tube. The ^1H and ^13C NMR spectra were referenced to sodium trimethylsilylpropylsulfonate in D2O, and the ^31P NMR spectra were referenced to 10% phosphoric acid in D2O. The 1D ^1H NMR spectra used frequency pre-saturation for water suppression. The DOSY spectra used a pre-saturation pulse for water suppression. The data were collected using a 2.5 second relaxation delay over an 8000 Hz spectral width, with 16 repetitions over 256 increments and a diffusion delay of 0.1 seconds. For the HMBC experiments, the ^1H spectra were acquired with 16 scans, with acquisition time and relaxation delay of 2 s and 1.5 s, respectively. To suppress water, ^1H pre-saturation was applied during the relaxation delay. The ^13C spectra were acquired with 1024 scans, with acquisition time and relaxation delay of 0.5 s and 1 s, respectively. For NOE enhancement and ^1H decoupling, ^1H WALTZ16 decoupling was applied during the entire experiment. ^1H-^13C HMBC 2D spectra were acquired using 2048 (t2) times 100 (t1) complex points with spectral widths of 8000 Hz (t2) and 10000 Hz (t1) and transformed to spectra with 2048 (D1) times 1024 (D2) real points after two times linear prediction in t1. The number of scans per each t1 increment was 128 and the relaxation delay for each scan was 1.5 s. To suppress water, ^1H pre-saturation was applied during the relaxation delay. The DEPT transfer delay for HMBC was chosen as ^2,3JHC=20 Hz (the multi-bond coupling constant) and ^1JHC (the one-bond coupling constant) was set as 140 Hz to suppress cross peaks contributed from the one-bond ^1H-^13C connectivity.

Data set [3] in a line: Solubility in water (noted when preparing NMR samples). The format is physicochemical. The conditions noted are these: K+ salt sample for NMR; spectra obtained in 1:1 CH3OD:H2O instead. The protocol: Portions of the ^1H NMR spectra of the K^+ salts of 4, 5, and 6 at 25° C. are shown in FIGS. 5B, 5C, and 5D, respectively. […] For 4, 5, and 6, the H1′/amino resonances display nearly identical diffusion constants of 3.7/3.5, 2.4/2.5, and 1.9/2.0, respectively. These resonances become larger at 5° C. and disappear completely at 55° C. In all three cases, ^1H spectra of the Na^+ salts closely resemble those of the K^+ salts.

Turning to `Nc1nc2c(ncn2[C@@H]2O[C@@H]3COP(=O)(O)OC4[C@@H](COP(=O)(O)O[C@@H]3C2O)O[C@@H](n2cnc3c(=O)[nH]c(N)nc32)[C@H]4O)c(=O)[nH]1` (stereo partly shown) [compound 1, cyclic diguanosine monophosphate], in data set [1], the “hypochromic effect in UV melt” value is given as “pronounced hypochromism”.

Consider `Nc1nc2c(nc(S)n2[C@@H]2O[C@@H]3COP(=O)(O)OC4C(O)[C@H](n5c(=S)[nH]c6c(=O)[nH]c(N)nc65)O[C@@H]4COP(=O)(O)OC3C2O)c(=O)[nH]1` (stereo partly shown) [compound 3, cyclo-8-thioguanosinylyl (3′→5′)-8′-thioguanosinylyl (3′→5′)], for which the “complex formed (self-association)” value in data set [2] (K+ salt) and in data set [2] (Na+ salt) was “primarily a syn bimolecular structure” throughout.

Turning to `CSc1nc2c(=O)[nH]c(N)nc2n1[C@@H]1O[C@@H]2COP(=O)(O)OC3C(O)[C@H](n4c(SC)nc5c(=O)[nH]c(N)nc54)O[C@@H]3COP(=O)(O)OC2C1O` (stereo partly shown) [compound 4, cyclo-8-methylthioguanosinylyl (3′→5′)-8′-methylthioguanosinylyl (3′→5′)], the “complex formed (self-association)” value in data set [2] (K+ salt) and in data set [2] (Na+ salt) was “primarily a syn bimolecular structure” in each case.

As for `CC(=O)c1cccc(-c2nc3c(=O)[nH]c(N)nc3n2[C@@H]2O[C@@H]3COP(=O)(O)OC4C(O)[C@H](n5c(-c6cccc(C(C)=O)c6)nc6c(=O)[nH]c(N)nc65)O[C@@H]4COP(=O)(O)OC3C2O)c1` (stereo partly shown) [compound 6, cyclo-8-(3-acetylphenyl)-guanosinylyl(3′→5′)-8′-(3-acetylphenyl)-guanosinylyl(3′→5′)], the solubility in water entry in data set [3] is “not soluble in water”. The “complex formed (self-association)” value in data set [2] (K+ salt) and in data set [2] (Na+ salt) was “primarily a syn bimolecular structure” throughout.

With `Nc1nc2c(nc(-c3ccccc3)n2[C@@H]2O[C@@H]3COP(=O)(O)OC4C(O)[C@H](n5c(-c6ccccc6)nc6c(=O)[nH]c(N)nc65)O[C@@H]4COP(=O)(O)OC3C2O)c(=O)[nH]1` (stereo partly shown) [compound 5, cyclo-8-phenylguanosinylyl (3′→5′)-8′-phenylguanosinylyl (3′→5′)], the “complex formed (self-association)” value in data set [2] (K+ salt) and in data set [2] (Na+ salt) was “primarily a syn bimolecular structure” in each case.
